Tested on: 485176-168-R4-J1-PDC complex spheroid growth
Experiment: Anticancer human tumor 485176-168-R4-J1-PDC patient-derived pancreatic adenocarcinoma cell line growth inhibition [RAS]
Details: for viability, T/C: stronger effect = lower value
Outline: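 Multi-cell-type spheroids: tumor cells plus HUVEC endothelial cells and mesenchymal stem cells. RAS-pathway inhibitors were combined with targeted agents, each dosed in half-log steps down from clinical Cmax, or from 10 microM when Cmax was unknown.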

[1] = curve of first compound, second compound 0.0316 µM
[2] = curve of first compound, second compound 0.1 µM
[3] = curve of first compound, second compound 0.316 µM
[4] = curve of first compound, second compound 1 µM
[5] = curve of first compound, second compound 3.16 µM
[6] = curve of first compound, second compound 10 µM
[7] = second compound 0.0316 µM, first compound 0.0316 µM
[8] = second compound 0.0316 µM, first compound 0.1 µM
[9] = second compound 0.0316 µM, first compound 0.316 µM
[10] = second compound 0.0316 µM, first compound 1 µM
[11] = second compound 0.0316 µM, first compound 3.16 µM
[12] = second compound 0.0316 µM, first compound 10 µM
[13] = second compound 0.1 µM, first compound 0.0316 µM
[14] = second compound 0.1 µM, first compound 0.1 µM
[15] = second compound 0.1 µM, first compound 0.316 µM
[16] = second compound 0.1 µM, first compound 1 µM
[17] = second compound 0.1 µM, first compound 3.16 µM
[18] = second compound 0.1 µM, first compound 10 µM
[19] = second compound 0.316 µM, first compound 0.0316 µM
[20] = second compound 0.316 µM, first compound 0.1 µM
[21] = second compound 0.316 µM, first compound 0.316 µM
[22] = second compound 0.316 µM, first compound 1 µM
[23] = second compound 0.316 µM, first compound 3.16 µM
[24] = second compound 0.316 µM, first compound 10 µM
[25] = second compound 1 µM, first compound 0.0316 µM
[26] = second compound 1 µM, first compound 0.1 µM
[27] = second compound 1 µM, first compound 0.316 µM
[28] = second compound 1 µM, first compound 1 µM
[29] = second compound 1 µM, first compound 3.16 µM
[30] = second compound 1 µM, first compound 10 µM
[31] = second compound 3.16 µM, first compound 0.0316 µM
[32] = second compound 3.16 µM, first compound 0.1 µM
[33] = second compound 3.16 µM, first compound 0.316 µM
[34] = second compound 3.16 µM, first compound 1 µM
[35] = second compound 3.16 µM, first compound 3.16 µM
[36] = second compound 3.16 µM, first compound 10 µM
[37] = second compound 10 µM, first compound 0.0316 µM
[38] = second compound 10 µM, first compound 0.1 µM
[39] = second compound 10 µM, first compound 0.316 µM
[40] = second compound 10 µM, first compound 1 µM
[41] = second compound 10 µM, first compound 3.16 µM
[42] = second compound 10 µM, first compound 10 µM
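Also: spheroids exposed to compounds for seven days before readout.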
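For viability, T/C in this document: luminescence viability expressed relative to DMSO vehicle wells set as 100%.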

Structure (SMILES): CC(Nc1ccc2c(c1)OCCn1cc(N3C(=O)OCC3C(F)F)nc1-2)C(N)=O (centres undefined) + C#Cc1c(F)ccc2cc(O)cc(-c3ncc4c(N5CC6CCC(C5)N6)nc(OCC56CCCN5CC(F)C6)nc4c3F)c12
- IC50 [1]: > 10000 nM
- IC50 [2]: > 10000 nM
- IC50 [3]: > 10000 nM
- IC50 [4]: > 10000 nM
- IC50 [5]: > 10000 nM
- IC50 [6]: > 10000 nM
- viability, T/C [7]: 97.5%
- viability, T/C [8]: 86.5%
- viability, T/C [9]: 91.8%
- viability, T/C [10]: 83.5%
- viability, T/C [11]: 59.1%
- viability, T/C [12]: 65.4%
- viability, T/C [13]: 114%
- viability, T/C [14]: 98.6%
- viability, T/C [15]: 71.9%
- viability, T/C [16]: 70.8%
- viability, T/C [17]: 69.4%
- viability, T/C [18]: 50%
- viability, T/C [19]: 92.5%
- viability, T/C [20]: 75%
- viability, T/C [21]: 88.8%
- viability, T/C [22]: 79.4%
- viability, T/C [23]: 75.3%
- viability, T/C [24]: 54.8%
- viability, T/C [25]: 107%
- viability, T/C [26]: 81.1%
- viability, T/C [27]: 85.8%
- viability, T/C [28]: 90.5%
- viability, T/C [29]: 78%
- viability, T/C [30]: 56.6%
- viability, T/C [31]: 107%
- viability, T/C [32]: 94.2%
- viability, T/C [33]: 85.8%
- viability, T/C [34]: 79.9%
- viability, T/C [35]: 53.4%
- viability, T/C [36]: 56.5%
- viability, T/C [37]: 91.7%
- viability, T/C [38]: 88.9%
- viability, T/C [39]: 67.7%
- viability, T/C [40]: 71.4%
- viability, T/C [41]: 72.1%
- viability, T/C [42]: 44%

Structure (SMILES): Cc1nc(N2CCC3(CC2)COC(C)C3N)c(CO)nc1Sc1ccnc(N)c1Cl (centres undefined) + C#Cc1c(F)ccc2cc(O)cc(-c3ncc4c(N5CC6CCC(C5)N6)nc(OCC56CCCN5CC(F)C6)nc4c3F)c12
- IC50 [1]: > 10000 nM
- IC50 [2]: > 10000 nM
- IC50 [3]: > 10000 nM
- IC50 [4]: > 10000 nM
- IC50 [5]: > 10000 nM
- IC50 [6]: > 10000 nM
- viability, T/C [7]: 111%
- viability, T/C [8]: 89.3%
- viability, T/C [9]: 79.5%
- viability, T/C [10]: 82.5%
- viability, T/C [11]: 88.5%
- viability, T/C [12]: 73.4%
- viability, T/C [13]: 91.6%
- viability, T/C [14]: 99.6%
- viability, T/C [15]: 83.4%
- viability, T/C [16]: 84.4%
- viability, T/C [17]: 85.6%
- viability, T/C [18]: 83%
- viability, T/C [19]: 83%
- viability, T/C [20]: 85.4%
- viability, T/C [21]: 86.7%
- viability, T/C [22]: 70.6%
- viability, T/C [23]: 81.8%
- viability, T/C [24]: 77.3%
- viability, T/C [25]: 85.5%
- viability, T/C [26]: 102%
- viability, T/C [27]: 71.4%
- viability, T/C [28]: 75.3%
- viability, T/C [29]: 77.7%
- viability, T/C [30]: 70.8%
- viability, T/C [31]: 92.6%
- viability, T/C [32]: 98.1%
- viability, T/C [33]: 96.2%
- viability, T/C [34]: 75.9%
- viability, T/C [35]: 86.5%
- viability, T/C [36]: 64.1%
- viability, T/C [37]: 80.4%
- viability, T/C [38]: 87.4%
- viability, T/C [39]: 87%
- viability, T/C [40]: 82.1%
- viability, T/C [41]: 80%
- viability, T/C [42]: 86.6%

Structure (SMILES): CCC(CC)c1cc(NC2CCC(N)C2)n2nccc2n1 (centres undefined) + C#Cc1c(F)ccc2cc(O)cc(-c3ncc4c(N5CC6CCC(C5)N6)nc(OCC56CCCN5CC(F)C6)nc4c3F)c12
- IC50 [1]: 1360 nM
- IC50 [2]: 1480 nM
- IC50 [3]: 1610 nM
- IC50 [4]: 1610 nM
- IC50 [5]: 1500 nM
- IC50 [6]: 1460 nM
- viability, T/C [7]: 115%
- viability, T/C [8]: 80.2%
- viability, T/C [9]: 102%
- viability, T/C [10]: 67.5%
- viability, T/C [11]: 2.68%
- viability, T/C [12]: 0.57%
- viability, T/C [13]: 105%
- viability, T/C [14]: 106%
- viability, T/C [15]: 95.3%
- viability, T/C [16]: 74.5%
- viability, T/C [17]: 3.04%
- viability, T/C [18]: 0.56%
- viability, T/C [19]: 85.5%
- viability, T/C [20]: 103%
- viability, T/C [21]: 94.1%
- viability, T/C [22]: 83.5%
- viability, T/C [23]: 2.75%
- viability, T/C [24]: 0.5%
- viability, T/C [25]: 113%
- viability, T/C [26]: 89.7%
- viability, T/C [27]: 92%
- viability, T/C [28]: 83.1%
- viability, T/C [29]: 2.71%
- viability, T/C [30]: 0.44%
- viability, T/C [31]: 103%
- viability, T/C [32]: 90.3%
- viability, T/C [33]: 97%
- viability, T/C [34]: 75.2%
- viability, T/C [35]: 3.48%
- viability, T/C [36]: 0.51%
- viability, T/C [37]: 93.3%
- viability, T/C [38]: 96.3%
- viability, T/C [39]: 79%
- viability, T/C [40]: 73%
- viability, T/C [41]: 2.33%
- viability, T/C [42]: 0.39%

Structure (SMILES): CCn1c(-c2cc(N3CCN(C)CC3)cnc2C(C)OC)c2c3cc(ccc31)-c1csc(n1)CC(NC(=O)C1CC1C)C(=O)N1CCCC(N1)C(=O)OCC(C)(C)C2 (centres undefined)
- viability, T/C (compound 0.000949 µM): 102% [middle of 8 runs]
- viability, T/C (compound 0.003 µM): 102% [middle of 8 runs]
- viability, T/C (compound 0.00949 µM): 92.2% [middle of 8 runs]
- IC50 (compound alone, run of 05/20/2024): > 300 nM

Structure (SMILES): CC(C)n1nc(-c2ccc3oc(N)nc3c2)c2c(N)ncnc21
- viability, T/C (compound 0.000316 µM): 104% [middle of 4 runs]
- viability, T/C (compound 0.001 µM): 77.8% [middle of 4 runs]
- viability, T/C (compound 0.00316 µM): 84.1% [middle of 4 runs]
- viability, T/C (compound 0.01 µM): 77.2% [middle of 4 runs]
- viability, T/C (compound 0.0316 µM): 49.2% [middle of 4 runs]
- viability, T/C (compound 0.1 µM): 22.3% [middle of 4 runs]
- IC50 (curve of compound): 31.2 nM [middle of 4 runs]

Structure (SMILES): O=C(c1ccc(F)c(F)c1Nc1ccc(I)cc1F)N1CC(O)([C@@H]2CCCCN2)C1 + C#Cc1c(F)ccc2cc(O)cc(-c3ncc4c(N5CC6CCC(C5)N6)nc(OCC56CCCN5CC(F)C6)nc4c3F)c12
- IC50 [1]: 358 nM
- IC50 [2]: 267 nM
- IC50 [3]: 231 nM
- IC50 [4]: 31 nM
- IC50 [5]: 88.8 nM
- IC50 [6]: 53.9 nM
- viability, T/C (second compound 0.0316 µM, first compound 0.00316 µM): 80.3%
- viability, T/C (second compound 0.0316 µM, first compound 0.01 µM): 79.3%
- viability, T/C [7]: 69.7%
- viability, T/C [8]: 72.4%
- viability, T/C [9]: 50.5%
- viability, T/C [10]: 41.1%
- viability, T/C (second compound 0.1 µM, first compound 0.00316 µM): 79%
- viability, T/C (second compound 0.1 µM, first compound 0.01 µM): 82.2%
- viability, T/C [13]: 72.6%
- viability, T/C [14]: 62.5%
- viability, T/C [15]: 48.2%
- viability, T/C [16]: 37.5%
- viability, T/C (second compound 0.316 µM, first compound 0.00316 µM): 88%
- viability, T/C (second compound 0.316 µM, first compound 0.01 µM): 72.3%
- viability, T/C [19]: 71.1%
- viability, T/C [20]: 56%
- viability, T/C [21]: 45.4%
- viability, T/C [22]: 41%
- viability, T/C (second compound 1 µM, first compound 0.00316 µM): 96%
- viability, T/C (second compound 1 µM, first compound 0.01 µM): 77.7%
- viability, T/C [25]: 49.5%
- viability, T/C [26]: 47.3%
- viability, T/C [27]: 58.2%
- viability, T/C [28]: 38.9%
- viability, T/C (second compound 3.16 µM, first compound 0.00316 µM): 90.4%
- viability, T/C (second compound 3.16 µM, first compound 0.01 µM): 86.4%
- viability, T/C [31]: 64.4%
- viability, T/C [32]: 50.6%
- viability, T/C [33]: 38.3%
- viability, T/C [34]: 39.2%
- viability, T/C (second compound 10 µM, first compound 0.00316 µM): 98.3%
- viability, T/C (second compound 10 µM, first compound 0.01 µM): 60.1%
- viability, T/C [37]: 57.8%
- viability, T/C [38]: 51%
- viability, T/C [39]: 46.8%
- viability, T/C [40]: 29.9%
